Several values for one entry are separate records, joined by “and”; a condition that tells them apart may be missing. Equal entries are not always repeated.
Columns and labels:
caspase 3/7 = assay: Caspase 3/7 activity in NVCM (Caspase-Glo); type: cell-based, rat; conditions: for Csp3/7 activity: independent replicates
Method: (§1) Caspase activity was assessed on NVCM cells using luciferase-based kits for caspase 3/7, 8 and 9 (Caspase-Glo® 3/7, 8 and 9 assay systems; Promega) according to the manufacturer’s instructions on 384-well plates (Greiner Bio-One). Luminescence signal was measured using Tecan M200 multifunctional plate-reader. All measured groups were corrected for total protein concentration (BCA assay) and were expressed as fold change of the signal over corresponding untreated control group. Each presented data point was obtained from distinct sample. Statistical significance was determined using ratio paired t-test, two-tailed.

rabbits = assay: Chronic anthracycline cardiotoxicity model in rabbits
Method: Thirty-eight rabbits were used for this purpose using the following study design. Chronic cardiotoxicity was induced by DAU (3 mg/kg, i.v., once weekly for 10 weeks, n = 11), while the control group received the same volume of saline (1 ml/kg, n = 9) in the same way. […] Animal survival was monitored daily, while body weight change was recorded weekly. The experiment was scheduled to end a week after the last dosing of the compounds studied.
Cardiac damage induced by DAU was quantified by determination of cardiac troponin T in plasma before the 1st, 5th, 8th and 10th doses and at the end of the study using a high sensitivity assay (Elecsys Troponin T high sensitive STAT test, Roche Diagnostics, Switzerland, detection limit of 0.003 μg/L). The area under curve (AUC) of the plasma concentration of cardiac troponin T was determined using GraphPad Prism.
The systolic function of the LV was examined throughout the experiment without invasiveness using echocardiography (Vivid 4, probe 10.5 MHz, GE HeathCare) and invasively at the scheduled end of the experiment using LV catheterization (a Millar catheter 2.3 F, Millar Instruments, USA). In the echocardiography examination, the M-mode was used to determine the dimensions of the LV and the fractional shortening of the LV (LVFS) was calculated as an index of systolic function as described previously[46]. Similarly, from the change in LV pressures determined by catheterization of the LV, dP/dtmax was calculated as an index of systolic function as previously described[47]. Statistical significance was determined using one way ANOVA followed by the Holm–Sidak post hoc test or Kruskal–Wallis ANOVA on ranks followed by Dunn’s post hoc test according to the data distribution.
During necropsy, heart was rapidly excised, washed in cold saline and LV free wall was snap frozen in liquid nitrogen. After homogenization in liquid nitrogen, aliquots (aprox. 50 mg) were stored at -80 °C and used for PCR analysis of molecular markers of cardiotoxicity. Total RNA was isolated from rabbit LV myocardium using TRIzol reagent (Sigma-Aldrich). After reverse transcription using a High-Capacity cDNA Reverse Transcription Kit, qPCR was performed with TaqMan Fast Universal PCR Master Mix on QuantStudio 7 Flex Real-Time PCR System (all from Applied Biosystems, Foster City). […] Mean threshold cycle values were transformed into relative expression using the Pfaffl method. Commercial gene expression assays were obtained from Applied Biosystems and Generi Biotech (Hradec Králové, Czech Republic). The expression data were normalized by Hprt1 expression. Statistical significance was determined using one way ANOVA followed by the Holm–Sidak post hoc test or Kruskal–Wallis ANOVA on ranks followed by Dunn’s post hoc test according to the data distribution.

HL-60 cell line = assay: Antiproliferative activity and interference with DAU (MTT), HL-60; type: cell-based, human; conditions: for HL-60 proliferation (MTT), mean of independent replicates: Suppl.Fig.8c
Method: Antiproliferative effects of studied compounds alone or in combination with DAU were assayed, as described previously, using HL-60 cell line (ATCC® Catalog Number: CCL-240TM, lot 5036502; American Type Culture Collection, Manassas, VA) derived from a patient with acute promyelocytic leukaemia. The cells were cultured in RPMI-1640 medium supplemented with 10% FBS, 50 U/mL penicillin, and 50 μg/mL streptomycin solution at 37 °C in a humidified atmosphere of 5% CO2. For the experiments, cells were seeded on 96-well plates (TPP, Switzerland) at a density of 10,000 cells per well ([…]). […] Proliferation was assessed by the MTT assay. Briefly, 25 µL of 3 mg/mL MTT solution (3(4,5-dimethyl-2-thiazolyl)-2,5-diphenyl-2H-tetrazolium bromide) in PBS was added to each well, and after 2 h of incubation at 37 °C the cells were lysed with lysis buffer (isopropanol, 0.1 M HCl, 5% Triton X-100) for 30 minutes at RT. After the formazan was dissolved, the absorbance of the samples was measured at 570 nm and a reference wavelength at 690 nm (the 690 nm background absorbance was subtracted from the 570 nm values). Data are expressed as mean ± SD from four independent experiments. Normalized values were plotted as a function of inhibitor concentration to determine IC50 values using Prism 9 (GraphPad). Statistical significance was evaluated by ANOVA with the Holm-Sidak post hoc test (P ≤ 0.05, marked as significant difference against control (c) or DAU (d)).

caspase 9 = assay: Caspase 9 activity in NVCM (Caspase-Glo); type: cell-based, rat; conditions: for Csp9 activity: independent replicates
Method: as §1

γH2AX = γH2AX levels in HL-60 cells (Western blotting); type: cell-based, human; conditions: for γH2AX level, mean of independent replicates: Suppl.Fig.8d
[1] = Topobexin alone, individual animals
[2] = Topobexin+DAU, individual animals

## CCCc1cc(=O)oc2c(C(=O)N3CCCc4ccccc43)c(OCCN3CCN(C)CC3)ccc12 [topobexin (9)]
Caspase 3/7; Cmpd 9 10 μM + DAU 1.2 μM
  Csp3/7 activity, mean: 1.924 fold change
  Csp3/7 activity: 1.455 fold change and 1.638 fold change and 2.77 fold change and 1.323 fold change and 2.6893 fold change and 1.665 fold change
Caspase 3/7; Cmpd 9 10 μM alone
  Csp3/7 activity, mean: 0.9751 fold change
  Csp3/7 activity: 1.249 fold change and 1.002 fold change and 1.008 fold change and 0.6241 fold change and 0.959 fold change and 1.009 fold change
Caspase 3/7; NVCM
  DAU-induced apoptotic signaling by caspases 3/7, 8, and 9: reduces DAU-induced apoptotic signaling
rabbits; [1]
  Body weight gain: 141.3 and 136.4 and 124.5 and 123.7 and 134.0 and 143.6 and 132.0
  Brain natriuretic peptide mRNA, LV myocardium: 3.72 and 0.42 and 0.55 and 0.81 and 0.90 and 0.28 and 2.33
  Collagen I alpha 1 mRNA: 1.54 and 1.27 and 0.81 and 0.88 and 1.14 and 1.41 and 1.19
  Fibronectin 1 mRNA: 1.41 and 1.30 and 1.55 and 1.58 and 1.78
  LV FS (LMV): 42.0 and 40.5 and 42.5 and 43.5 and 39.0 and 43.0
  LV dP/dtmax: 7750 and 7165 and 9815 and 8309 and 8311 and 8034 and 7362
  Δ LV FS (LMV): 1.0 and -1.5 and 2.0 and -1.0 and -2.5
rabbits; [2]
  Body weight gain: 104.9 and 134.7 and 121.0 and 128.3 and 113.2 and 106.8 and 114.9 and 101.0 and 104.7
  Brain natriuretic peptide mRNA, LV myocardium: 1.55 and 3.15 and 0.69 and 1.65 and 1.04 and 0.65 and 5.19 and 1.00 and 2.01 and 1.22 and 0.48
  Collagen I alpha 1 mRNA: 0.77 and 1.31 and 1.34 and 2.10 and 1.65 and 1.81 and 2.59 and 0.95 and 1.66 and 0.86 and 1.09
  Fibronectin 1 mRNA: 0.87 and 1.85 and 1.50 and 1.99 and 1.56 and 2.18 and 3.87 and 1.34 and 1.94 and 1.25 and 1.18
  LV FS (LMV): 42.0 and 43.5 and 39.3 and 42.3 and 44.0 and 42.8 and 40.0 and 41.0 and 43.8
  LV dP/dtmax: 8562 and 8147 and 6788 and 7928 and 8340 and 7337 and 7402 and 8558 and 8112 and 8066 and 7973
  Δ LV FS (LMV): -1.5 and 3.0 and -2.3 and 0.5 and 4.0 and -0.3 and -4.0 and -1.0 and 0.0 and 2.3 and 2.0
rabbits; alone or with DAU, weekly for 10 weeks
  tolerability: well tolerated
rabbits; topobexin + DAU
  Body weight gain: matched the DAU group
  LV expression of BNP: prevented by co-administration of topobexin (9)
  LV systolic function (echocardiography): effectively prevented the DAU-induced decrease in LV systolic function
  cardiomyocyte damage, plasma cTnT: effectively prevented by topobexin (9)
  survival: survived until the scheduled end of the experiment
rabbits; topobexin alone
  Body weight gain: did not differ from the control group
HL-60 cell line; HL-60, any concentration tested
  effect on antiproliferative effects of DAU: did not decrease the antiproliferative effects of DAU
HL-60 cell line; compound 0.01 µM + DAU 1.2 µM
  HL-60 proliferation (MTT), mean of independent replicates: 39.4171
HL-60 cell line; compound 0.1 µM + DAU 1.2 µM
  HL-60 proliferation (MTT), mean of independent replicates: 37.298
HL-60 cell line; compound 1 µM + DAU 1.2 µM
  HL-60 proliferation (MTT), mean of independent replicates: 37.3478
HL-60 cell line; compound 10 µM + DAU 1.2 µM
  HL-60 proliferation (MTT), mean of independent replicates: 18.3679
HL-60 cell line; compound 30 µM + DAU 1.2 µM
  HL-60 proliferation (MTT), mean of independent replicates: 13.5189
HL-60 cell line; compound 100 µM + DAU 1.2 µM
  HL-60 proliferation (MTT), mean of independent replicates: 1.772
HL-60 cell line; compound alone 0.01 µM
  HL-60 proliferation (MTT), mean of independent replicates: 99.5782
HL-60 cell line; compound alone 0.1 µM
  HL-60 proliferation (MTT), mean of independent replicates: 97.2193
HL-60 cell line; compound alone 1 µM
  HL-60 proliferation (MTT), mean of independent replicates: 91.5968
HL-60 cell line; compound alone 10 µM
  HL-60 proliferation (MTT), mean of independent replicates: 13.6521
HL-60 cell line; compound alone 30 µM
  HL-60 proliferation (MTT), mean of independent replicates: 12.3063
HL-60 cell line; compound alone 100 µM
  HL-60 proliferation (MTT), mean of independent replicates: 1.671
Caspase 9; Cmpd 9 10 μM + DAU 1.2 μM
  Csp9 activity, mean: 1.834 fold change
  Csp9 activity: 1.395 fold change and 1.389 fold change and 2.498 fold change and 1.26 fold change and 2.708 fold change and 1.753 fold change
Caspase 9; Cmpd 9 10 μM alone
  Csp9 activity, mean: 0.9606 fold change
  Csp9 activity: 0.8436 fold change and 1.03 fold change and 0.994 fold change and 0.6408 fold change and 0.974 fold change and 1.282 fold change
γH2AX; HL-60, DAU, highest concentration tested
  concentration with statistically significant decrease in γH2AX levels: 10 µM
γH2AX; compound 0.1 µM + DAU 1.2 µM, DAU mean = 100
  γH2AX level, mean of independent replicates: 85.0292
γH2AX; compound 0.3 µM + DAU 1.2 µM, DAU mean = 100
  γH2AX level, mean of independent replicates: 71.0118
γH2AX; compound 1 µM + DAU 1.2 µM, DAU mean = 100
  γH2AX level, mean of independent replicates: 59.3884
γH2AX; compound 3 µM + DAU 1.2 µM, DAU mean = 100
  γH2AX level, mean of independent replicates: 59.6746
γH2AX; compound 10 µM + DAU 1.2 µM, DAU mean = 100
  γH2AX level, mean of independent replicates: 31.6085
γH2AX; compound alone 0.1 µM, DAU mean = 100
  γH2AX level, mean of independent replicates: 21.4098
γH2AX; compound alone 0.3 µM, DAU mean = 100
  γH2AX level, mean of independent replicates: 25.2396
γH2AX; compound alone 1 µM, DAU mean = 100
  γH2AX level, mean of independent replicates: 23.449
γH2AX; compound alone 3 µM, DAU mean = 100
  γH2AX level, mean of independent replicates: 19.8181
γH2AX; compound alone 10 µM, DAU mean = 100
  γH2AX level, mean of independent replicates: 24.2375

## COc1cccc2c1C(=O)c1c(O)c3c(c(O)c1C2=O)C[C@@](O)(C(C)=O)C[C@@H]3O[C@H]1C[C@H](N)[C@H](O)[C@H](C)O1 [DAU, daunorubicin, reference compound]
Caspase 3/7; DAU 1.2 μM alone
  Csp3/7 activity, mean: 3.236 fold change
  Csp3/7 activity: 2.392 fold change and 2.445 fold change and 4.746 fold change and 2.53 fold change and 4.167 fold change and 3.136 fold change
rabbits; DAU 3 mg/kg weekly, 10 weeks
  premature death: one premature death
rabbits; DAU alone, individual animals
  Body weight gain: 111.6 and 102.0 and 134.7 and 116.1 and 99.5 and 98.2 and 106.3 and 117.5 and 112.5 and 97.6 and 92.2
  Brain natriuretic peptide mRNA, LV myocardium: 3.43 and 7.71 and 11.23 and 1.53 and 3.70 and 14.27 and 5.99 and 15.03 and 2.12 and 2.78
  Collagen I alpha 1 mRNA: 1.89 and 3.79 and 5.05 and 1.80 and 2.15 and 7.04 and 4.33 and 8.95 and 1.98 and 2.03
  Fibronectin 1 mRNA: 2.75 and 11.42 and 16.69 and 2.86 and 6.76 and 33.96 and 11.80 and 25.41 and 3.99 and 2.01
  LV FS (LMV): 35.5 and 28.3 and 21.8 and 37.5 and 22.5 and 33.0 and 26.0 and 35.8
  LV dP/dtmax: 4037 and 6946 and 6956 and 5174 and 3773 and 6731 and 5382 and 6442
  Δ LV FS (LMV): -7.5 and -6.8 and -15.3 and -22.3 and -4.5 and -6.0 and -18.5 and -9.0 and -16.5 and -17.5 and -9.2
HL-60 cell line; DAU 1.2 µM alone
  HL-60 proliferation (MTT), mean of independent replicates: 35.1587
Caspase 9; DAU 1.2 μM alone
  Csp9 activity, mean: 2.579 fold change
  Csp9 activity: 1.742 fold change and 1.782 fold change and 3.523 fold change and 1.858 fold change and 4.0027 fold change and 2.565 fold change
γH2AX; DAU 1.2 µM alone (mean = 100)
  γH2AX level, mean of independent replicates: 100

Source: PMC12116762, “Topobexin targets the Topoisomerase II ATPase domain for beta isoform-selective inhibition and anthracycline cardioprotection” (Nature Communications, 2025)
